{"source": "patent US5624812A", "about": "“Method for measuring carbon dioxide and reagent therefor” (Toyo Boseki Kabushiki Kaisha, priority 1993, dated 1997)", "molecules": {"B1": {"name": "phosphoenolpyruvate carboxylase yielded by Acetobacter hansenii IFO 14820 (ATCC 35959) (Novacetimonas hansenii) (protein)", "chain": "MSQASAPHATDMLQQQARELVAIPALSDNPVMTLARSIGQQIDRGSLSTDALEAWVRRLRDAAFARRACHIAAYVGGVDDAVIDQRMRDVARRIMQPDPNDSPVPIARFRAATERSRFAAVFTAHPTFALASPVYDCLADMATQNPQQPPTDVPAFITHRRAAPPTLDEEFTLATQAILRGRNALDRLTRVLLTEARAHWPQLWATLAPRPIIMTSWVGYDTDGRTDIGWWDTLRLRLRMKHMQLTRLNAQIGPVASVPNDLHERVNRAIQAVEAQIAACPGSADPQAVADFAAVLIGRREEAMTSSNDLAPTFAEAIDAATLDDKMTLAVARAGFMAHGLSAAHTHVRLNSTQLHNVARQRLGITDNPDIHAQRRALIARIDEALDTTQPIDIDFGSLLVEQSTAGRLMMTVRQILHHIDRTTPIRFLIAETETGYTLLTALWLARLLGVEDMIEISPLFETQDALEQGEHLIEEALHSPHWRAYLHRTRKLSLQFGFSDSGRYVGQLAATYLIERLRLKVCDLLRQWDLAFVEVILFDTHGESIGRGAHPYSLAERFDYLSPPHARMRFLQAGIRLREETAFQGGDGYLLFGTQPLADATVSVIAEHAFATTSIDEDPVYDEPDFSADFFSAIARGMTGLVEDPGYAALLGAFGPSLIDKTGSRPSARQSDTAAITTRIRHPSQLRAIPNNAILQQLGWCANTLQGLGTAAARHPDTFERYLNDSPRFRRALDFAAHGLAHSSDGVLRGVIRLLDPDMWLQRATAHHDPKRQDACLTLMHGLERLDFWACTQSMFRRLQSDHLALRNAWPSAPRMEADEMLLHAIRIAIIEQIWMLSTRIPYFAPRNAFTRDVLTAKVLCLEIPDVLKELEHIFPYHADRSFDLDFHEPHGPRDEGTYMREYTEIFEPMQRLFTLVREISTGVMHHVGAFG"}}, "key": {"[1]": {"target": "T1, phosphoenolpyruvate carboxylase yielded by Acetobacter hansenii IFO 14820 (ATCC 35959) (Novacetimonas hansenii, UniProt A0ABQ0SBC7)", "T1 sequence (A0ABQ0SBC7 1-933)": "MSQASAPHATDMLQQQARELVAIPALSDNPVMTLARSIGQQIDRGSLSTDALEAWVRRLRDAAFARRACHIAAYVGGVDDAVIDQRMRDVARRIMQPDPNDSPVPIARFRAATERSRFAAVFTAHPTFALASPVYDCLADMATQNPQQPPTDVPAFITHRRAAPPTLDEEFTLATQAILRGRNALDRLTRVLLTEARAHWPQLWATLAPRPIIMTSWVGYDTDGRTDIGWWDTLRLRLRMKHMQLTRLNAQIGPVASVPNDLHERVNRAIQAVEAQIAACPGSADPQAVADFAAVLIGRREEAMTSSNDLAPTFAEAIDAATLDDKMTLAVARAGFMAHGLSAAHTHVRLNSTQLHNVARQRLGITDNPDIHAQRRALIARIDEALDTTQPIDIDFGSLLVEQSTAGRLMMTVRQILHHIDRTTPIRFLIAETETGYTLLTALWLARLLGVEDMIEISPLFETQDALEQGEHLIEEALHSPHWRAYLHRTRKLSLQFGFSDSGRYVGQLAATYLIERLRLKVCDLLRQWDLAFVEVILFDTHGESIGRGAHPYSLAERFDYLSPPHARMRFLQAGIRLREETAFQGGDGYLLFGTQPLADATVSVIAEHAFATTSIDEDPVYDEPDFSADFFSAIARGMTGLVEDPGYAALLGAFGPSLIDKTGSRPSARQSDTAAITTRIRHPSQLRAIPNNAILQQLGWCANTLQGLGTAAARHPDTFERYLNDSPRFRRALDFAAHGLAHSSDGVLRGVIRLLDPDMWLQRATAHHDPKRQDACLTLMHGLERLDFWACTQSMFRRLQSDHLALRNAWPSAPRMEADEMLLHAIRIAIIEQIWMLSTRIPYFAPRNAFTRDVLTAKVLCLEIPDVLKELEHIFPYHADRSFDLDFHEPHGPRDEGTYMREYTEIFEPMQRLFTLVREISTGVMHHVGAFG", "protocol": "A reaction mixture (2.9 ml) containing 50 mM Tris-HCl, 10 mM Na2 CO3, 3.2 mM phosphoenolpyruvic acid, 100 mM MgSO4, 0.14 mM NADH and 50 U/ml malate dehydrogenase is prepared in a cuvette (d=1 cm) and preheated at 30° C. for about 5 minutes. An enzyme solution (0.1 ml) is added thereto and the mixture is gently stirred. A change in absorbance at 340 nm is recorded for 2-3 minutes with a spectrophotometer using water adjusted to 30° C. as a control, and change in absorbance per minute is calculated from the initial linear portion thereof (ΔOD test). A blank test is performed by using 50 mM phosphate buffer (pH 7.0) in place of the enzyme solution and following the steps to determine changes in absorbance per minute (ΔOD blank)."}, "[2]": {"substrate": "C=C(OP(=O)(O)O)C(=O)O", "experiment": "purified protein, by the assay type", "details": "pH 7.0; 30.0 °C"}}}
{"molecule": "Nc1ncnc2c1ncn2[C@@H]1O[C@H](COP(=O)(O)OP(=O)(O)O)[C@@H](O)[C@H]1O", "note": "[ADP]", "values": [{"measurement": "Inhibition by ADP", "setting": "[1]", "result": "Not inhibited"}]}
{"molecule": "CC(=O)SCCNC(=O)CCNC(=O)[C@H](O)C(C)(C)COP(=O)(O)OP(=O)(O)OC[C@H]1O[C@@H](n2cnc3c(N)ncnc32)[C@H](O)[C@@H]1OP(=O)(O)O", "note": "[acetyl CoA]", "values": [{"measurement": "Activation by acetyl CoA", "setting": "[1]", "result": "Not activated"}]}
{"molecule": "B1", "values": [{"measurement": "Km", "setting": "[2]", "result": 210, "unit": "µM"}]}
